Reference: patent publication US10189863B2, “5,6-dihydro-4H-benzo[b]thieno-[2,3-d]azepine derivatives” (PULMOCIDE LIMITED, priority 2014, dated 2019)
Where two headings read alike, the source gives them in different places.

Assays:
[1] = tested on: RSV A2 strain; assay: Assessment of RSV induced CPE in HEp2 cells (RSV A2 strain); format: cell-based; conditions: human respiratory syncytial virus; for IC50: HEp-2, 120 h; for inhibition at 0.01 µg/mL: Inhibition (%) at 0.01 μg/mL
Procedure: (§1) Assessment of RSV Induced CPE in HEp2 Cells
(§2) HEp2 cells were seeded (10^3/well/50 μL) in 384-well plates (Catalogue number 353962, BD Falcon, Oxford, UK) in […] containing 2 mM L-glutamine and 1 mM sodium pyruvate one day before infection. RSV A2 strain (#0709161v, NCPV, Public Health England, Wiltshire) or RSV B Washington strain (VR-1580, ATCC, Manassas, Va. 20108) virus solutions were prepared in serum free-DMEM with 2 mM L-glutamine and 1 mM sodium pyruvate, and then added (50 μL/well) to achieve a final virus concentration of 1 MOI. Simultaneously test compounds (0.5 μL DMSO solution) were added to 100 μL of HEp2 cell culture with virus solution to provide a final DMSO solution of 0.5%. Plates were incubated (37° C./5% CO2) for 5 days for studies using RSV A2 strain or 6 days for those using RSV B strain, and then resazurin sodium salt (5 μL of 0.03% solution; Sigma-Aldrich, Dorset, UK) was added to each well and the plate incubated for a further 6 hr (37° C./5% CO2). The fluorescence of each well [545 nm (excitation)/590 nm (emission)] was determined using a multi-scanner (Clariostar: BMG, Buckinghamshire, UK). The percentage inhibition for each well was calculated and the IC50, IC75 and IC90 values were calculated from the concentration-response curve generated for each test compound.

[2] = tested on: RSV B Washington strain; assay: Assessment of RSV induced CPE in HEp2 cells (RSV B Washington strain); format: cell-based; conditions: human respiratory syncytial virus; for IC50: HEp-2, 144 h
Procedure: as §1, §2

[3] = Cell viability: resazurin assay; format: cell-based, human; conditions: human, HEp2 cells
Procedure: Cell Viability: Resazurin Assay
HEp2 cells were seeded in 384-well plates (10^3/well/50 μL; BD Falcon Ref 353962) in FBS DMEM (5%, containing 2 mM L-glutamine and 1 mM sodium pyruvate) one day before experimentation. Serum-free DMEM (50 μL) was added to test wells while for control wells the media was removed and sterile water (100 μL) was added. Test compounds (0.5 μL DMSO solution) were added to give a final DMSO concentration of 0.5%. Hep2 cells were incubated with each test compound for 5 days (37° C./5% CO2 in 5% FBS) and then resazurin stock solution (5 μL; 0.03%) was added to each well and the plate incubated for a further 6 hr (37° C./5% CO2). The fluorescence of each well at 545 nm (excitation) and 590 nm (emission) was determined using a multi-scanner (Clariostar: BMG Labtech). The percentage loss of cell viability was calculated for each well relative to vehicle (0.5% DMSO) treatment.
Any apparent increase in cell viability associated with test compound treatment relative to vehicle is consequently tabulated as a negative percentage. Where appropriate, a CC50 value was calculated from the concentration-response curve generated from the concentration-response curve for each test compound.

[4] = HEp-2, read-out: RSV A2 CPE % Inhibition
[5] = HEp-2, read-out: RSV B CPE % Inhibition
[6] = HEp2 cells, 1 MOI, 5 days, read-out: RSV A2 CPE IC50
[7] = HEp-2, HEp2 cells, Inhibition (%) at 0.1 μg/mL, read-out: RSV A2 CPE % Inhibition
[8] = HEp2 cells, 1 MOI, 6 days, read-out: RSV B CPE IC50
[9] = HEp-2, HEp2 cells, Inhibition (%) at 1 μg/mL, read-out: RSV B CPE % Inhibition

| IC50 [1, 6] [nM] | IC50 [2, 8] [nM] | Structure (SMILES) | IC50 ([1]; read-out: RSV A2 CPE IC50 (nM)) [nM] | inhibition at 0.1 µg/mL [1, 4] [%] | IC50 ([2]; read-out: RSV B CPE IC50 (nM)) [nM] | inhibition at 1 µg/mL [2, 5] [%] | CC50 at 5 days [3] [nM] | inhibition at 0.1 µg/mL [1, 7] [%] | inhibition at 1 µg/mL [2, 9] [%] | inhibition at 0.01 µg/mL ([1]; HEp-2, HEp2 cells) [%] | inhibition at 0.1 µg/mL ([2]; HEp-2, HEp2 cells, Inhibition (%) at 0.1 μg/mL) [%] |
| --- | --- | --- | --- | --- | --- | --- | --- | --- | --- | --- | --- |
| – | – | O=C(Nc1ccccc1)c1cc2c(s1)-c1ccccc1N(C(=O)c1ccc(NC(=O)c3cccnc3N3CC4(CCOCC4)C3)cc1)CC2 [Example 1, 6-(4-(2-(7-oxa-2-azaspiro[3.5]nonan-2-yl)nicotinamido)benzoyl)-N-phenyl-5,6-dihydro-4H-benzo[b]thieno[2,3-d]azepine-2-carboxamide] | 0.5 | 98 | 166 | 77 | > 14900 | – | – | – | – |
| – | – | N#Cc1ccccc1NC(=O)c1cc2c(s1)-c1ccccc1N(C(=O)c1ccc(NC(=O)c3cccnc3N3CC4(CCOCC4)C3)cc1)CC2 [Example 2, 6-(4-(2-(7-oxa-2-azaspiro[3.5]nonan-2-yl)nicotinamido)benzoyl)-N-(2-cyanophenyl)-5,6-dihydro-4H-benzo[b]thieno[2,3-d]azepine-2-carboxamide] | 0.16 | 91 | 314 | 69 | > 14400 | – | – | – | – |
| 1.3 | 195 | COc1ccc(C(=O)Nc2ccc(C(=O)N3CCc4cc(C(=O)Nc5ccccc5F)sc4-c4ccccc43)cc2)c(N2CC3(CCOCC3)C2)n1 [Example 3, 6-(4-(6-methoxy-2-(7-oxa-2-azaspiro[3.5]nonan-2-yl)nicotinamido)benzoyl)-N-(2-fluorophenyl)-5,6-dihydro-4H-benzo[b]thieno[2,3-d]azepine-2-carboxamide] | – | – | – | – | > 13900 | 100 | 58 | – | – |
| 2.1 | 49.3 | O=C(Nc1ccccc1F)c1cc2c(s1)-c1ccccc1N(C(=O)c1ccc(NC(=O)c3cc(C4CC4)cnc3N3CC4(CCOCC4)C3)cc1)CC2 [Example 4, 6-(4-(5-Cyclopropyl-2-(7-oxa-2-azaspiro[3.5]nonan-2-yl)nicotinamido)benzoyl)-N-(2-fluorophenyl)-5,6-dihydro-4H-benzo[b]thieno[2,3-d]azepine-2-carboxamide] | – | – | – | – | > 13700 | – | 83 | 100 | – |
| 0.13 | 4.2 | Cc1cnc(N2CC3(CCOCC3)C2)c(C(=O)Nc2ccc(C(=O)N3CCc4cc(C(=O)Nc5c(F)cccc5I)sc4-c4ccccc43)cc2)c1 [Example 6, N-(2-Fluoro-6-iodophenyl)-6-(4-(5-methyl-2-(7-oxa-2-azaspiro[3.5]nonan-2-yl)nicotinamido)benzoyl)-5,6-dihydro-4H-benzo[b]thieno[2,3-d]azepine-2-carboxamide] | – | – | – | – | > 12100 | – | 100 | 100 | – |
| 0.15 | 98.6 | Cc1cnc(N2CC3(CCOCC3)C2)c(C(=O)Nc2ccc(C(=O)N3CCc4cc(C(=O)Nc5c(F)cccc5C5CC5)sc4-c4ccccc43)cc2)c1 [Example 7, N-(2-Cyclopropyl-6-fluorophenyl)-6-(4-(5-methyl-2-(7-oxa-2-azaspiro[3.5]nonan-2-yl)nicotinamido)benzoyl)-5,6-dihydro-4H-benzo[b]thieno[2,3-d]azepine-2-carboxamide] | – | – | – | – | > 13500 | 100 | 94 | – | – |
| 0.28 | 25.9 | Cc1cccc(F)c1NC(=O)c1cc2c(s1)-c1ccccc1N(C(=O)c1ccc(NC(=O)c3cc(C4CC4)cnc3N3CC4(CCOCC4)C3)cc1)CC2 [Example 11, 6-(4-(5-Cyclopropyl-2-(7-oxa-2-azaspiro[3,5]nonan-2-yl)nicotinamido)benzoyl)-N-(2-fluoro-6-methylphenyl)-5,6-dihydro-4H-benzo[b]thieno[2,3-d]azepine-2-carboxamide] | – | – | – | – | > 13500 | 93 | 95 | – | – |
| 0.42 | 1.3 | Cc1cccc(F)c1NC(=O)c1cc2c(s1)-c1ccccc1N(C(=O)c1ccc(NC(=O)c3cc4c(nc3N3CC5(CCOCC5)C3)CCOC4)cc1)CC2 [Example 12, N-(4-(2-((2-Fluoro-6-methylphenyl)carbamoyl)-5,6-dihydro-4H-benzo[b]thieno[2,3-d]azepine-6-carbonyl)phenyl)-2-(7-oxa-2-azaspiro[3.5]nonan-2-yl)-7,8-di hydro-5H-pyrano[4,3-b]pyridine-3-carboxamide] | – | – | – | – | > 13200 | – | 98 | 100 | – |
| 0.45 | 0.96 | O=C(Nc1c(F)cccc1F)c1cc2c(s1)-c1ccccc1N(C(=O)c1ccc(NC(=O)c3cc4sccc4nc3N3CC4(CCOCC4)C3)cc1)CC2 [Example 13, 6-(4-(5-(7-Oxa-2-azaspiro[3.5]nonan-2-yl)thieno[3,2-b]pyridine-6-carboxamido)benzoyl)-N-(2,6-difluorophenyl)-5,6-dihydro-4H-benzo[b]thieno[2,3-d]azepine-2-carboxamide] | – | – | – | – | > 13100 | – | 100 | 100 | – |
| 0.66 | 204 | CCc1ccccc1NC(=O)c1cc2c(s1)-c1ccccc1N(C(=O)c1ccc(NC(=O)c3cccnc3N3CC4(CCOCC4)C3)cc1)CC2 [Example 17, 6-(4-(2-(7-oxa-2-azaspiro[3.5]nonan-2-yl)nicotinamido)benzoyl)-N-(2-ethylphenyl)-5,6-dihydro-4H-benzo[b]thieno [2,3-d]azepine-2-carboxamide] | – | – | – | – | > 14300 | 100 | 77 | – | – |
| 0.16 | > 1440 | C#Cc1ccc(NC(=O)c2cc3c(s2)-c2ccccc2N(C(=O)c2ccc(NC(=O)c4cccnc4N4CC5(CCOCC5)C4)cc2)CC3)cc1 [Example 18, 6-(4-(2-(7-oxa-2-azaspiro[3.5]nonan-2-yl)nicotinamido)benzoyl)-N-(4-ethynylphenyl)-5,6-dihydro-4H-benzo[b] thieno[2,3-d]azepine-2-carboxamide] | – | – | – | – | > 14400 | 75 | 18 | – | – |
| 0.14 | 28 | O=C(Nc1c(F)cccc1F)c1cc2c(s1)-c1ccccc1N(C(=O)c1ccc(NC(=O)c3cccnc3N3CC4(CCOCC4)C3)cc1)CC2 [Example 19, 6-(4-(2-(7-oxa-2-azaspiro[3.5]nonan-2-yl)nicotinamido)benzoyl)-N-(2,6-difluorophenyl)-5,6-dihydro-4H-benzo[b] thieno[2,3-d]azepine-2-carboxamide] | – | – | – | – | > 14200 | 88 | – | – | 100 |
| 0.36 | 129 | O=C(Nc1ccc(F)cc1F)c1cc2c(s1)-c1ccccc1N(C(=O)c1ccc(NC(=O)c3cccnc3N3CC4(CCOCC4)C3)cc1)CC2 [Example 20, 6-(4-(2-(7-oxa-2-azaspiro[3.5]nonan-2-yl)nicotinamido)benzoyl)-N-(2,4-difluorophenyl)-5,6-dihydro-4H-benzo[b] thieno[2,3-d]azepine-2-carboxamide] | – | – | – | – | > 14200 | 100 | 80 | – | – |
| 1.3 | 100 | O=C(Nc1ccc(Cl)cc1F)c1cc2c(s1)-c1ccccc1N(C(=O)c1ccc(NC(=O)c3cccnc3N3CC4(CCOCC4)C3)cc1)CC2 [Example 21, 6-(4-(2-(7-oxa-2-azaspiro[3.5]nonan-2-yl)nicotinamido)benzoyl)-N-(4-chloro-2-fluorophenyl)-5,6-dihydro-4H-benzo[b]thieno[2,3-d]azepine-2-carboxamide] | – | – | – | – | > 13800 | 100 | 73 | – | – |
